# Laboratory results as given in patent publication US10485861B2 (priority 2013, dated 2019).
# System: Chlamydia trachomatis
# Type: in vivo, mice
# Conditions: subcutaneous immunization with UV-inactivated Chlamydia, alone or co-administered with the named adjuvant
smiles,measurement,value
"CC(C)Cn1cnc2c(N)nc3ccccc3c21 [IMQ, imiquimod]",Protection against genital Chlamydia challenge (Chlamydia load),did not provide protection or tolerance
